Key:
[1] = system: Impatiens Dazzler White seeds; assay: Growth regulator in casting: germination and plant height; format: in vivo; settings: count date 11; for Germ (%): 25° C.
Protocol: (§1) A single seed was placed in every mold cavity of a mold containing 108 cavities of dimensions 0.25 inch (6.4 mm) in length by 0.125 inch (3.2 mm) in width and 0.125 inch (3.2 mm) in depth. The following growth regulator concentrations were applied to seed via the casting method: 2 ppm, 4 ppm, and 8 ppm. PEG 4000 (100 g) was weighed out and put into a beaker. This was done four times. Each beaker with the PEG 4000 was heated to 111° F. until the PEG 4000 completely melted. The growth regulator concentrations were made by dissolving a given weight of the plant grown retardant ancymidol (α-cyclopropyl-α-(p-methoxyphenyl)-5-pyrimidinemethanol; A-REST) powder into 1 ml of acetone, as follows: 6.4 mg A-REST into 1 ml of acetone for 2 ppm; 12.8 mg A-REST into 1 ml of acetone for 4 ppm; and 25.6 mg A-REST into 1 ml acetone for 8 ppm. Once dissolved, the specified concentrations of A-REST were added to the beakers with the melted PEG and mixed on the heated stir plate until well blended; 65 μl was pipetted into the cavities that contained the seeds. Once the entire mold was filled it was set aside to cool. […] The castings were then removed from the mold.
(§2) The 108 castings (seed plus PEG 4000) containing the A-REST concentrations, along with a cast only (no added A-REST) and a raw control, were sown in a plug tray to evaluate germination. Seeds were sown at 25° C. The plug trays were run through a watering tunnel and then put into a Stage 1 mist chamber. Upon radical emergence, the plugs were placed in a Stage 2 chamber. The amount of time in Stage 1 and Stage 2 was dependent on the crop.
(§3) Plant height was measured and recorded on the same day seed germination was recorded.

[2] = system: Marigolds African Marvel Orange seeds; assay: as above; format: in vivo; settings: count date 10; for Germ (%): 25° C.
Protocol: as §1, §2, §3

COc1ccc(C(O)(c2cncnc2)C2CC2)cc1 (stereo not drawn) [A-REST, α-cyclopropyl-α-(p-methoxyphenyl)-5-pyrimidinemethanol]
Germ (%) ([1]; 2 ppm in PEG 4000 casting): 96% | Ave. Height (mm) ([1]; 2 ppm in PEG 4000 casting): 13 mm | Germ (%) ([1]; 4 ppm in PEG 4000 casting): 94% | Ave. Height (mm) ([1]; 4 ppm in PEG 4000 casting): 11 mm | Germ (%) ([1]; 8 ppm in PEG 4000 casting): 99% | Ave. Height (mm) ([1]; 8 ppm in PEG 4000 casting): 9 mm | Germ (%) ([2]; 2 ppm in PEG 4000 casting): 98% | Ave. Height (mm) ([2]; 2 ppm in PEG 4000 casting): 12 mm | Germ (%) ([2]; 4 ppm in PEG 4000 casting): 87% | Ave. Height (mm) ([2]; 4 ppm in PEG 4000 casting): 12 mm | Germ (%) ([2]; 8 ppm in PEG 4000 casting): 82% | Ave. Height (mm) ([2]; 8 ppm in PEG 4000 casting): 12 mm
